Tests used:
[1] = test system: phosphorus and calcium levels in the urine of rats; assay: Urinary excretion of phosphate and calcium in rats (16 h overnight urine); type: in vivo, rat; settings: rats, oral gavage, 16 h post-dose
[2] = test system: absorption of sodium from the intestinal lumen; assay: Inhibition of intestinal sodium absorption: urinary sodium (uNa) 16 h after single oral dose in rats; type: in vivo, rat; settings: oral gavage, 16 h post-dose
Procedure: (§1) Inhibition of intestinal sodium and phosphate absorption. Urinary sodium concentration and fecal form were measured to assess the ability of selected example compounds to inhibit the absorption of sodium from the intestinal lumen. Eight-week old Sprague-Dawley rats were purchased from Charles River Laboratories (Hollister, CA), were housed 2 per cage, and acclimated for at least 3 days before study initiation. Animals were fed Harlan Teklad Global 2018 rodent chow (Indianapolis, IN) and water ad libitum throughout the study and maintained in a standard light/dark cycle of 6 AM to 6 PM. On the day of the study, between 4 PM and 5 PM, a group of rats (n=6) were dosed via oral gavage with test compound, or a pharmaceutically acceptable salt thereof, or vehicle (water) at a volume of 10 mL/kg.
(§2) After dose administration animals were placed in individual metabolic cages where they were also fed the same chow in meal form and watered ad libitum. At 16 h post-dose, the urine samples were collected and fecal form was assessed by two independent observations. Fecal forms were scored according to a common scale associated with increasing fecal water to the wettest observation in the cage's collection funnel (1, normal pellet; 2, pellet adhering to sides of collection funnel due to moisture; 3, loss of normal pellet shape; 4, complete loss of shape with a blotting pattern; 5, liquid fecal streams evident). A rat's fecal form score (FFS) was determined by averaging both observational scores for all rats within a group (n=6). The vehicle group average was 1.
For urine samples, the volumes were determined gravimetrically and centrifuged at 3,600×g. The supernatants were diluted 100-fold in deionized Milli-Q water then filtered through a 0.2 μm GHP Pall AcroPrep filter plate (Pall Life Sciences, Ann Arbor, MI) prior to analysis by ion chromatography. Ten microliters of each filtered extract was injected onto a Dionex ICS-3000 ion chromatograph system (Dionex, Sunnyvale, CA). Cations were separated by an isocratic method using 25 mM methanesulfonic acid as the eluent on an IonPac CS12A 2 mm i.d.×250 mm, 8 μm particle size cation exchange column (Dionex). Sodium was quantified using standards prepared from a cation standard mix containing Li^+, Na^+, NH4^+, K^+, Mg^2+, and Ca^2+ (Dionex). The mean mass of sodium urinated for every group in the 16 h period was determined with the vehicle group usually urinating approximately 21 mg sodium. The urine Na (uNa) for rats in the test groups were expressed as a percentage of the vehicle mean and the means were compared to that of the vehicle group by utilizing a one-way analysis of variance coupled with a Dunnett's post hoc test.
Further experiments were performed to test the compounds under the persistent and prompt conditions described above, and to test their effects on urinary excretion of sodium in rats. The latter was performed by orally dosing the compounds in rats (single dose) and measuring urinary Na excretion (as a % of vehicle). The results are indicated as percentage of urinary sodium (UNa %); low values indicate relatively active compounds.

[3] = test system: absorption of sodium from the intestinal lumen; assay: Fecal form score (FFS) 16 h after oral dose in rats; type: in vivo, rat; settings: oral gavage, 16 h post-dose, scale 1-5
Procedure: as §1, §2

Rat NHE3 = target: T1, Rat NHE3 (Rattus norvegicus, UniProt P26433); assay: Cell-based NHE3 activity under prompt conditions (OK cells, BCECF pH recovery), rat NHE3; settings: prompt conditions
T1 construct: expressed in transfected cells; host or cells: Opossum kidney (OK) cells (ATCC), electroporation
T1 sequence (P26433 29-831): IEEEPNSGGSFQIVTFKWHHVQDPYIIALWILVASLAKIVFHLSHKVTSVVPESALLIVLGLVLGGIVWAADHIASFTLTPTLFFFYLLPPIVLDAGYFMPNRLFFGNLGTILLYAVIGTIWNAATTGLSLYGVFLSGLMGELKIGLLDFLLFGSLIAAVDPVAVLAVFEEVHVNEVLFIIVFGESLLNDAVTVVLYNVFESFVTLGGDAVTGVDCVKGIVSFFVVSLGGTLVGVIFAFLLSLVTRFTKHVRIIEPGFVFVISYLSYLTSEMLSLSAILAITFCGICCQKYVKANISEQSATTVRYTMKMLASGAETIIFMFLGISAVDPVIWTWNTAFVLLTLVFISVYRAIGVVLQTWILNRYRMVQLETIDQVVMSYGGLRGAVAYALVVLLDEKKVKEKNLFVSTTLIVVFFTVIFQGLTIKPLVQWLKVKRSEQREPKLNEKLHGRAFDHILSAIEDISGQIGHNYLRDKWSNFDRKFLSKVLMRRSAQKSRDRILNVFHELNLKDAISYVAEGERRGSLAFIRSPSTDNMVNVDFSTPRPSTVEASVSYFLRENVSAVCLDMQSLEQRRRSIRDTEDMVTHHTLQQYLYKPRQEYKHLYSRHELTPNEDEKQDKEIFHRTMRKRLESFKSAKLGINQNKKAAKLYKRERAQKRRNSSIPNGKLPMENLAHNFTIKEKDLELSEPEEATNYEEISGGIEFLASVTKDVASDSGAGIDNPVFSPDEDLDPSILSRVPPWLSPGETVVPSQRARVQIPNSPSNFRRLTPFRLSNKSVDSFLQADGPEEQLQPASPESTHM
Procedure: Cell-based activity under Prompt Conditions. Rat or human NHE3-mediated Na^+-dependent H antiport was measured using a modification of the pH sensitive dye method originally reported by Paradiso (PNAS USA. 81:7436-7440, 1984). Opossum kidney (OK) cells were obtained from the ATCC and propagated per their instructions. The rat NHE3 gene (GenBank M85300) or the human NHE3 gene (GenBank NM_004174.1) was introduced into OK cells via electroporation, and cells were seeded into 96 well plates and grown overnight. Medium was aspirated from the wells, cells were washed twice with NaCl-HEPES buffer (100 mM NaCl, 50 mM HEPES, 10 mM glucose, 5 mM KCl, 2 mM CaCl2, 1 mM MgCl2, pH 7.4), then incubated for 30 min at room temperature with NH4Cl-HEPES buffer (20 mM NH4Cl, 80 mM NaCl, 50 mM HEPES, 5 mM KCl, 2 mM CaCl2, 1 mM MgCl2, pH 7.4) containing 5 μM bis(acetoxymethyl) 3,3′-(3′,6′-bis(acetoxymethoxy)-5-((acetoxymethoxy)carbonyl)-3-oxo-3H-spiro[isobenzofuran-1,9′-xanthene]-2′,7′-diyl)dipropanoate (BCECF-AM).
Cells were washed twice with Ammonium free, Na^+-free HEPES (100 mM choline, 50 mM HEPES, 10 mM glucose, 5 mM KCl, 2 mM CaCl2, 1 mM MgCl2, pH 7.4) and incubated in the same buffer for 10 minutes at room temperature to lower intracellular pH. […] Initial rates were plotted as the average 2 or more replicates, and pIC50 values were estimated using GraphPad Prism.
Cell-based activity of NHE3 Activity under ‘Prompt’ Conditions. This assay was performed as described in Example 1 (supra).

Row | Compound | Urine P % of control ([1]; dose 10 mg/kg) [%] | Urine Na % of control ([2]; dose 10 mg/kg) [%] | Fecal Form Score average ([3]; dose 10 mg/kg) | Prompt Rat NHE3 pIC50 (Rat NHE3) | Urine P % of control ([1]; dose 3 mg/kg) [%] | Urine Na % of control ([2]; dose 3 mg/kg) [%] | Fecal Form Score average ([3]; dose 3 mg/kg) | Urine P % of control ([1]; dose 1 mg/kg) [%] | Urine Na % of control ([2]; dose 1 mg/kg) [%] | Fecal Form Score average ([3]; dose 1 mg/kg)
1 | CCCCCCCCOc1ccc(CNCCOCCOCCOCCNS(=O)(=O)c2cccc([C@@H]3CN(C)Cc4c(Cl)cc(Cl)cc43)c2)cc1 [compound 111] | 69 | 60 | 2 | <5.00 |  |  |  |  |  | 
2 | CN(CC(=O)NCCOCCOCCNS(=O)(=O)c1ccc(O[C@H]2c3ccccc3C[C@@H]2N2CCCCC2)cc1)CC(=O)NCCOCCOCCNS(=O)(=O)c1ccc(O[C@H]2c3ccccc3C[C@@H]2N2CCCCC2)cc1 (racemic) [compound 50] | 50 | 82 | 1 |  |  |  |  |  |  | 
3 | CCCCCCCCCCC(=O)NCCOCCOCCOCCNS(=O)(=O)c1cccc([C@@H]2CN(C)Cc3c(Cl)cc(Cl)cc32)c1 [compound 92] | 70 | 62 | 1 | <5.00 |  |  |  |  |  | 
4 | CN1Cc2c(Cl)cc(Cl)cc2[C@H](c2cccc(S(=O)(=O)NCCOCCOCCNC(=O)CCC(CCC(=O)NCCOCCOCCNS(=O)(=O)c3cccc([C@@H]4CN(C)Cc5c(Cl)cc(Cl)cc54)c3)(CCC(=O)NCCOCCOCCNS(=O)(=O)c3cccc([C@@H]4CN(C)Cc5c(Cl)cc(Cl)cc54)c3)NC(=O)[C@H]3CCCC[C@@H]3C(=O)O)c2)C1 (racemic) [compound 141] |  |  |  |  | 24 | 63 | 2 |  |  | 
5 | CN1Cc2c(Cl)cc(Cl)cc2C(c2cccc(S(N)(=O)=O)c2)C1 (centres unmarked) [compound 1] | 52 | 87 | 1 | 6.60 |  |  |  |  |  | 
6 | CC(C)CCC[C@@H](C)[C@H]1CC[C@H]2[C@@H]3CC=C4C[C@@H](OC(=O)NCCOCCOCCOCCNS(=O)(=O)c5cccc([C@@H]6CN(C)Cc7c(Cl)cc(Cl)cc76)c5)CC[C@]4(C)[C@H]3CC[C@]12C [compound 125] | 278 | 81 | 1 | <5.00 |  |  |  |  |  | 
7 | CN1Cc2c(Cl)cc(Cl)cc2C(c2cccc(S(=O)(=O)NCCOCCOCCNC(=O)CN(CCOCCOCCOCCN)CC(=O)NCCOCCOCCNS(=O)(=O)c3cccc([C@@H]4CN(C)Cc5c(Cl)cc(Cl)cc54)c3)c2)C1 (stereo in doubt) [compound 120] |  |  |  | 7.80 | 71 | 71 | 1 |  |  | 
8 | C=CC(=O)NCCOCCOCCOCCNS(=O)(=O)c1cccc([C@@H]2CN(C)Cc3c(Cl)cc(Cl)cc32)c1 [compound 104] | 62 | 56 | 2 | 6.70 |  |  |  |  |  | 
9 | CC(C)CCC[C@@H](C)[C@H]1CC[C@H]2[C@@H]3CC=C4C[C@@H](OC(=O)NCCOCCOCCNC(=O)N(CCNC(=O)NCCOCCOCCNS(=O)(=O)c5cccc([C@@H]6CN(C)Cc7c(Cl)cc(Cl)cc76)c5)CCNC(=O)NCCOCCOCCNS(=O)(=O)c5cccc([C@@H]6CN(C)Cc7c(Cl)cc(Cl)cc76)c5)CC[C@]4(C)[C@H]3CC[C@]12C [compound 121] |  |  |  | <5.00 | 151 | 92 | 1 |  |  | 
10 | CCCCCCCCOCCOCCOCCOCCOCCOC(=O)NCCOCCOCCOCCNS(=O)(=O)c1cccc([C@@H]2CN(C)Cc3c(Cl)cc(Cl)cc32)c1 [compound 102] | 92 | 86 | 1 | 6.60 |  |  |  |  |  | 
11 | CN1Cc2c(Cl)cc(Cl)cc2[C@H](c2cccc(S(=O)(=O)NCCOCCOCCNC(=O)NCCN(CCNC(=O)NCCOCCOCCNS(=O)(=O)c3cccc([C@@H]4CN(C)Cc5c(Cl)cc(Cl)cc54)c3)C(=O)NCCOCCOCCN)c2)C1 [compound 108] |  |  |  | 8.40 | 51 | 13 | 4 |  |  | 
12 | CN1Cc2c(Cl)cc(Cl)cc2[C@H](c2cccc(S(=O)(=O)NCCOCCOCCOCCNC(=O)c3ccc(-c4ccc(Cl)cc4)cc3)c2)C1 [compound 93] | 75 | 78 | 1 | <5.00 |  |  |  |  |  | 
13 | CCC(=O)NCCOCCOCCOCCNS(=O)(=O)c1cccc([C@@H]2CN(C)Cc3c(Cl)cc(Cl)cc32)c1 [compound 103] | 71 | 40 | 1 | 6.70 |  |  |  |  |  | 
14 | CN1Cc2c(Cl)cc(Cl)cc2[C@@H](c2cccc(S(=O)(=O)NCCOCCOCCNC(=O)NCCCCNC(=O)NCCOCCOCCNS(=O)(=O)c3cccc([C@@H]4CN(C)Cc5c(Cl)cc(Cl)cc54)c3)c2)C1 [compound 39] | 130 | 68 | 1 | 7.30 |  |  |  | 166 | 71 | 1
15 | CN1Cc2c(Cl)cc(Cl)cc2[C@H](c2cccc(S(=O)(=O)NCCOCCOCCNC(=O)CN(CCOCCOCCOCCNC(=O)c3ccc(-c4ccc(Cl)cc4)cc3)CC(=O)NCCOCCOCCNS(=O)(=O)c3cccc([C@@H]4CN(C)Cc5c(Cl)cc(Cl)cc54)c3)c2)C1 [compound 105] |  |  |  | 5.90 | 154 | 119 | 1 |  |  | 
16 | CN1Cc2c(Cl)cc(Cl)cc2[C@H](c2cccc(S(=O)(=O)NCCOCCOCCNC(=O)NCCN(CCNC(=O)NCCOCCOCCNS(=O)(=O)c3cccc([C@@H]4CN(C)Cc5c(Cl)cc(Cl)cc54)c3)C(=O)NCCOCCOCCNC(=O)c3ccc(-c4ccc(Cl)cc4)cc3)c2)C1 [compound 110] |  |  |  | 5.80 | 68 | 63 | 1 |  |  | 
